The values below come from article PMC2994747, “Molecular Characterization of c-Abl/c-Src Kinase Inhibitors Targeted against Murine Tumour Progenitor Cells that Express Stem Cell Markers” (PLoS ONE, 2010).

The IC50 is the midpoint of a concentration-inhibition curve.

The subject of test [1] is murine and human tumour cell lines. Kind of test: MTS cell viability assay, statements over the cell line panel. The format is cell-based. The note with it: 96 h; cell line not stated at b77; read-out: IC50 (MTS) after 96 h of treatment. How it is done: Three human and eleven murine cancer cell lines were used. The human NSCLC cell line A549 (ACC 107) and the human colorectal carcinoma cell line CaCo2 (ACC 169) were obtained from Deutsche Sammlung von Mikroorganismen und Zellkulturen (DSMZ, Braunschweig, Germany). The human hepatocellular carcinoma cell line HepG2 (HB-8065) was obtained from American Type Culture Collection (Manassas, VA, USA). The 11 murine NSCLC cell lines were established as described recently. Cells were grown in monolayer cultures in DMEM containing 10% foetal calf serum, 4 mmol/l L-glutamine and 2% Penicillin/Streptomycin at 37°C in a humidified atmosphere of 95% air and 5% CO2.
Cell culture viability was monitored by CellTiter96® AQueous One Solution Cell Proliferation Assay (Promega GmbH, Mannheim, Germany). The cells were seeded in triplicates in 96-well microtitre plates and treated with the dual kinase inhibitors or vehicle (0.2% DMSO). After 24 h or 96 h of treatment the MTS tetrazolium reagent was added to the cells and incubated for 1 h. Absorbance at 490 nm was assayed with a Victor3 Wallac 1420 Multilabel counter (PerkinElmer, Waltham, MA, USA).
For orientation: Tetrazolium assays rely on reduction of a dye to a coloured formazan, in cell work by metabolically active cells.

A further test relates to GammaD12. To be noted: IC50 concentration, 24 h, vs vehicle. How it is done:
According to instructions, Caspase-Glo® 3/7 assay (Promega GmbH, Mannheim, Germany) was used for monitoring caspase activity. Briefly, the same volume Caspase-Glo reagent as culture medium was added and incubated 1 h at room temperature. Luminescence was read with a Victor3 Wallac 1420 Multilabel counter (PerkinElmer, Rodgau, Germany). Background absorbance (medium only) was subtracted and the data given as percent of vehicle controls.

As for `Clc1cccc(Nc2nc(SC3CCCC3)nc3c2cnn3CC(Cl)c2ccccc2)c1` (centres unmarked) [Si135], in test [1], the half-inhibitory concentration (IC50) is 2700 nM.
As to `Fc1ccccc1CNc1ncnc2c1cnn2CC(Cl)c1ccc(Br)cc1` (centres unmarked) [Si162], the “Increase in caspase-3/7 activity” value in the test on GammaD12 is recorded as “up to 3 fold”.
